# Results taken from US20110144345A1, “SULFOXYIMINO-SUBSTITUTED BENZOYL DERIVATIVE AND HERBICIDE” (NIPPON SODA CO., LTD., priority 2008, published 2011).
row,melting point [°C],SMILES
1,152 to 155,O=C1CCCC(O)=C1C(=O)c1ccc(OCc2ccccc2)c(N=S2(=O)CCCCC2)c1Cl [Example 65]
2,95 to 97,Cn1ncc(C(=O)c2ccc(OCc3ccccc3)c(N=S3(=O)CCCCC3)c2Cl)c1O [Example 66]
3,158 to 164,COC(=O)c1ccc(C(=O)c2cnn(C)c2O)c(Br)c1N=S1(=O)CCOCC1 [Example 69]
4,210 to 215,CCn1ncc(C(=O)c2ccc(C(=O)OC)c(N=S3(=O)CCOCC3)c2Br)c1O [Example 74]
5,179 to 181,COc1ccc(C(=O)c2cnn(C)c2O)c([N+](=O)[O-])c1N=S1(=O)CCCCC1 [Example 76]
6,190 to 192,CCn1ncc(C(=O)c2ccc(OC)c(N=S3(=O)CCCCC3)c2[N+](=O)[O-])c1O [Example 77]
7,64 to 68,CC(=O)OCc1ccc(C(=O)c2cnn(C)c2O)c(Cl)c1N=S1(=O)CCCCC1 [Example 83]
8,200 to 202,COc1ccc(C(=O)c2cnn(C(C)(C)C)c2O)c(Cl)c1N=S1(=O)CCCCC1 [Example 88]
9,145 to 150,COC(=O)/C=C/c1ccc(C(=O)c2cnn(C)c2O)c(Cl)c1N=S1(=O)CCCCC1 [Example 91]
10,129 to 131,COc1ccc(C(=O)C2=C(O)CCCC2=O)c(OC)c1N=S1(=O)CCCCC1 [Example 92]
11,133 to 137,COC(=O)c1ccc(C(=O)c2cnn(C)c2O)cc1N=S1(=O)CCCCC1 [Example 96]

# Further lines, the molecule ahead of its results:
row,SMILES,melting point [°C]
1,CCn1ncc(C(=O)c2ccc(OC)c(N=S3(=O)CCCCC3)c2Cl)c1O [Example 4],137 to 139
2,COc1ccc(C(=O)C(C#N)C(=O)C2CC2)c(Cl)c1N=S1(=O)CCCCC1 (stereo not drawn) [Example 5],154 to 156
3,CCOc1ccc(C(=O)c2cnn(C)c2O)c(Cl)c1N=S1(=O)CCCCC1 [Example 12],88 to 90
4,CC(C)Oc1ccc(C(=O)c2cnn(C)c2O)c(Cl)c1N=S1(=O)CCCCC1 [Example 16],139 to 141
5,COC(=O)c1ccc(C(=O)c2cnn(C)c2O)c(Cl)c1N=S1(=O)CCCCC1 [Example 21],204 to 206
6,O=C1CCCC(O)=C1C(=O)c1ccc(-c2ccccc2)c(N=S2(=O)CCCCC2)c1Cl [Example 23],166 to 168
7,COC(=O)c1ccc(C(=O)c2cnn(C)c2O)c(Cl)c1N=S1(=O)CCOCC1 [Example 25],147 to 149
8,CCS(=O)(CC)=Nc1c(C(=O)OC)ccc(C(=O)c2cnn(C)c2O)c1Cl [Example 26],69 to 73
9,CCn1ncc(C(=O)c2ccc(C(=O)OC)c(N=S3(=O)CCCCC3)c2Cl)c1O [Example 30],201 to 203
10,Cn1ncc(C(=O)c2cccc(N=S3(=O)CCCCC3)c2)c1O [Example 35],112 to 113
11,Cn1ncc(C(=O)c2cccc(N=S3(=O)CCCCC3)c2Cl)c1O [Example 39],177 to 179
12,CSc1ccc(C(=O)C2=C(O)CCCC2=O)c(Cl)c1N=S1(=O)CCCCC1 [Example 41],178 to 180
13,CSc1ccc(C(=O)c2cnn(C)c2O)c(Cl)c1N=S1(=O)CCCCC1 [Example 42],157 to 159
14,Cn1ncc(C(=O)c2ccc(C#N)c(N=S3(=O)CCCCC3)c2Cl)c1O [Example 44],192 to 196
15,CCOC(=O)c1ccc(C(=O)c2cnn(C)c2O)c(Cl)c1N=S1(=O)CCCCC1 [Example 47],88 to 91
16,Cn1ncc(C(=O)c2ccc(OC3CCCC3)c(N=S3(=O)CCCCC3)c2Cl)c1O [Example 49],145 to 148
17,COCc1ccc(C(=O)c2cnn(C)c2O)c(Cl)c1N=S1(=O)CCCCC1 [Example 52],78 to 82
18,CON=Cc1ccc(C(=O)c2cnn(C)c2O)c(Cl)c1N=S1(=O)CCCCC1 [Example 55],98 to 105
19,COc1ccc(C(=O)c2c(C3CC3)nn(C)c2O)c(Cl)c1N=S1(=O)CCCCC1 [Example 56],145 to 147
